The values below come from patent US20070099877A1, “N-aryl-thienopyrimidin-4-amines and analogs as activators of caspases and inducers of apoptosis and the use thereof” (Cytovia, Inc., priority 2005, published 2007).

Structures can show the parent of a compound that is named as a salt. Where two headings read alike, the source gives them in different places.

Holding throughout (format): cell-based
The test system of experiment [1] is murine leukemia cell line P388. Description: Inhibition of cell proliferation (GI50) in P388 cells. The settings on record: Mus musculus, Table IV, read-out: GI50 in Multi-Cancer Cells P388. The method, then:
(§1) Human breast cancer cell lines T-47D, MX-1 and MDAMB435, human colon cancer cell line HT29, and human lung cancer cell line H1299 were grown and harvested as in Example 75. An aliquot of […] of cells (4.4×10^4 cells/mL) was added to a well of a 96-well microtiter plate containing 5 μL of a 10% DMSO in RPMI-1640 media solution containing 10 nM to 100 μM of N-(2,5-dimethoxyphenyl)-2-methylthieno[3,2-d]pyrimidin-4-amine (1 nM to 10 μM final). An aliquot of 45 μL of cells was added to a well of a 96-well microtiter plate containing 5 μL of a 10% DMSO in RPMI-1640 media solution without compound as the control sample for maximal cell proliferation (Lmax). The samples were mixed by agitation and then incubated at 37° C. for 48 h in a 5% CO2-95% humidity incubator. After incubation, the samples were removed from the incubator and 25 μL of CellTiter-Glo™ reagent (Promega) was added. The samples were mixed by agitation and incubated at room temperature for 10-15 min. Plates were then read using a luminescent plate reader (Model SPECTRAfluor Plus, Tecan) to give Ltest values.
(§2) Baseline for GI50 (dose for 50% inhibition of cell proliferation) of initial cell numbers was determined by adding an aliquot of 45 μL of cells or 45 μL of media, respectively, to wells of a 96-well microtiter plate containing 5 μL of a 10% DMSO in RPMI-1640 media solution. The samples were mixed by agitation and then incubated at 37° C. for 0.5 h in a 5% CO2-95% humidity incubator. After incubation, the samples were removed from the incubator and 25 μL of CellTiter-Glo™ reagent (Promega) was added. The samples were mixed by agitation and incubated at 37° C. for 10-15 min at room temperature in a 5% CO2-95% humidity incubator. Fluorescence was read as above, (LStart) defining luminescence for initial cell number used as baseline in GI50 determinations.
(§3) GI50 (dose for 50% inhibition of cell proliferation) is the concentration where [(LTest−Lstart)/(LMax−Lstart)]=0.5.
(§4) Several compounds were tested in multi cancer cell lines, including human breast cancer cell lines T-47D, MX-1, SKBR3 and MDAMB435, human hepatocellular carcinoma cell line SNU398, human colon carcinoma cell line HCT116, human sarcoma cell line MES-SA and multi-drug resistant (MDR) human sarcoma cell line MES-SA/ADR, murine leukemia cell line P388 and multi-drug resistant (MDR) murine leukemia cell line P388ADR, and the data are summarized in Table IV.

In experiment [2] the test system is human colon carcinoma cell line HCT116. In words: Inhibition of cell proliferation (GI50) in HCT116 cells. The settings on record: HCT-116, Table IV, read-out: GI50 in Multi-Cancer Cells HCT116. As to the method:
as §1, §2, §3, §4

Experiment [3] deals with human lung cancer cell line H1299. Description: Caspase cascade activation in H1299 cells. The settings on record: NCI-H1299, 24 h, read-out: Caspase activation Potency EC50 H1299 (24 h). The gist of the method:
(§5)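 Cells were exposed to compound at 0.016 to 10 μM final for 24 h or 48 h at 37 °C. They were then lysed with 14 μM N-(Ac-DEVD)-N′-ethoxycarbonyl-R110 in lysolecithin/DTT/PIPES buffer pH 7.2 for 3 h at room temperature (ex 485/em 530 nm). EC50 came from a sigmoidal fit of net RFU relative to untreated control.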

The test system of experiment [4] is multi-drug resistant (MDR) human sarcoma cell line MES-SA/ADR. Description: Inhibition of cell proliferation (GI50) in MES-SA/ADR cells. Particulars: Table IV, read-out: GI50 in Multi-Cancer Cells MES-SA/ADR. As to the method: as §1, §2, §3, §4
In experiment [5] the test system is human breast cancer cell line T-47D. Description: Caspase cascade activation (DEVD-R110 fluorogenic substrate) in T-47D cells. Particulars: Homo sapiens, T47D. The gist of the method:
as §5

For experiment [6], the system named is breast cancer cell line SKBR3. Description: Caspase cascade activation in SKBR3 cells. Particulars: Homo sapiens, SK-BR-3, 48 h, read-out: Caspase Activation Potency EC50 SKBR3.
The subject of experiment [7] is human B cell lymphoblastoid cell line Ramos. In words: Caspase cascade activation in Ramos cells. Particulars: 48 h, read-out: Caspase Activation Potency EC50 Ramos.
Experiment [8] relates to human breast cancer cell line SKBR3. Description: Inhibition of cell proliferation (GI50) in SKBR3 cells. The settings on record: SK-BR-3, Table IV, read-out: GI50 in Multi-Cancer Cells SKBR3. The method, then:
as §1, §2, §3, §4

The test system of experiment [9] is human lung cancer cell line H1299. Description: Inhibition of cell proliferation (GI50) in H1299 cells. The settings on record: NCI-H1299, Table III, 48 h. As to the method: as §1, §2, §3
Where [10] appears, read: 24 h, T47D cells, 24 h, read-out: Caspase activation Potency EC50 T47D (24 h).
Setting [11] is: 48 h, T-47D cells, 48 h, read-out: Caspase activation Potency EC50 T-47D (48 h).

What is called EC50 is the concentration needed to bring the measured effect to its halfway point. For the compound `COc1cc(Nc2ncnc3ccsc23)cc(OC)c1` [Example 12, N-(3,5-Dimethoxyphenyl)thieno[3,2-d]pyrimidin-4-amine hydrochloride], the GI50 stood at 540 nM in experiment [1], 1250 nM in experiment [2], 1200 nM in experiment [4] and 60 nM in experiment [8]. For the same compound, the EC50 came out at 303 nM in experiment [3]; 38 nM in [5] (setting [10]); 62 nM in [5] (setting [11]); 77 nM in [6]; 582 nM in experiment [7].
For `COc1ccc(OC)c(Nc2ncnc3ccsc23)c1` [Example 2, N-(2,5-Dimethoxyphenyl)thieno[3,2-d]pyrimidin-4-amine], the GI50 in experiment [1] came to 2060 nM; in experiment [2], 4980 nM; in [9] it was 1040 nM; in experiment [4], 7260 nM; in experiment [8] it was 500 nM. In addition, the concentration for a half-maximal effect (EC50) in experiment [3] is 2910 nM; in experiment [5] (setting [10]), 61 nM; in [5] (setting [11]), 105 nM.
